According to publication PMC3299850 (2012):

Tests used:
[1] = test system: HP1 (TAMRA at T37) (DNA, hairpin, T37 replaced by 2'-deoxyuridine bearing TAMRA at C5) CCTGGAGAGGAAGCCAAGTGTTTTCACTTGGCTTCCTCTCCAGG; assay: fluorescence titration; details: 50 mM NaCl; 10 mM HEPES, 1 mM EDTA, pH 7.4, 25 °C
[2] = test system: HP1 (TAMRA at T34) (DNA, hairpin, T34 replaced by 2'-deoxyuridine bearing TAMRA at C5) CCTGGAGAGGAAGCCAAGTGTTTTCACTTGGCTTCCTCTCCAGG; assay: fluorescence titration; details: 50 mM NaCl; 10 mM HEPES, 1 mM EDTA, pH 7.4, 25 °C
[3] = test system: HP2 unlabeled (DNA, hairpin) GCTAGATATATAGCTTTTTAGCTATATATCTAGC; assay: competition fluorescence titration; details: 50 mM NaCl; 10 mM HEPES, 1 mM EDTA, pH 7.4, 25 °C; TAMRA-HP2 complex displaced

Row | Compound | Kd [1] | also measured
1 | CN(C)CCCNC(=O)CCNC(=O)c1cc(NC(=O)CCNC(=O)c2cc(NC(=O)c3cc(NC(=O)CCCNC(=O)c4nc(NC(=O)c5cc(NC(=O)c6nc(NC(=O)c7nccn7C)cn6C)cn5C)cn4C)cn3C)cn2C)cn1C | 50 ± 15 nM | 
2 | CN(C)CCCNC(=O)CCNC(=O)c1cc(NC(=O)c2cc(NC(=O)c3cc(NC(=O)c4cc(NC(=O)CCCNC(=O)c5nc(NC(=O)CCNC(=O)c6nc(NC(=O)c7nccn7C)cn6C)cn5C)cn4C)cn3C)cn2C)cn1C | 140 ± 30 nM | 
3 | CN(C)CCCNC(=O)CCNC(=O)c1cc(NC(=O)c2cc(NC(=O)c3nc(NC(=O)CCCNC(=O)c4cc(NC(=O)c5nc(NC(=O)c6nccn6C)cn5C)cn4C)cn3C)cn2C)cn1C | 7.8 ± 1.6 nM | 
4 | CN(C)CCCNC(=O)CCNC(=O)c1cc(NC(=O)c2cc(NC(=O)c3nc(NC(=O)c4cc(NC(=O)CCCNC(=O)c5cc(NC(=O)c6cc(NC(=O)c7nc(NC(=O)c8nccn8C)cn7C)cn6C)cn5C)cn4C)cn3C)cn2C)cn1C | 2.3 ± 0.3 nM | 
5 | CN(C)CCCNC(=O)CCNC(=O)c1cc(NC(=O)c2nc(NC(=O)c3nc(NC(=O)c4cc(NC(=O)CCCNC(=O)c5cc(NC(=O)c6cc(NC(=O)c7cc(NC(=O)c8nccn8C)cn7C)cn6C)cn5C)cn4C)cn3C)cn2C)cn1C |  | Kd [2]: 11.4 ± 1 nM
6 | CN(CCCN)CCCNC(=O)CCNC(=O)c1cc(NC(=O)c2cc(NC(=O)c3cc(NC(=O)c4cc(NC(=O)CCNC(=O)c5cc(NC(=O)c6cc(NC(=O)CCCNC(=O)c7cc(NC(=O)c8cc(NC(=O)c9cc(NC(=O)CCNC(=O)c%10cc(NC(=O)c%11cc(NC(=O)c%12nccn%12C)cn%11C)cn%10C)cn9C)cn8C)cn7C)cn6C)cn5C)cn4C)cn3C)cn2C)cn1C |  | Kd [3]: 1.8 nM
